# Reference: EP0114563A1, “Cytostatically effective combination” (SCHERING AKTIENGESELLSCHAFT, priority 1982, dated 1984)
# Like-named read-outs stand apart in the source and are kept apart here.
# Tested on: human leukemic cells
# Experiment: Inhibition of cell proliferation (growth kinetics by cell counting) in culture
# Settings: L-Dopa 10 µg/ml, read-out: inhibition in %, based on a control free of active agent
# Source text: Every second day, the culture medium of each test batch was replaced by fresh medium and active agent.
smiles,measurement,setting,value
"N[C@@H](Cc1ccc(O)c(O)c1)C(=O)O [L-Dopa, 3-hydroxy-L-tyrosine]",inhibition at 10 µg/mL,72 Hrs.,18%
same,inhibition at 10 µg/mL,144 Hrs.,58%
